Source: patent US20090182011A1, “Chimeric Nitrate Esters and Use of the Same in a Treatment for Depression” (UNIVERSITY OF ILLINOIS CHICAGO, priority 2008, published 2009)

Experiments:
[1] = NO-fluoxetine bioactivation in rat plasma; format: in vitro ADME; settings: 0.25 mM substrate, 30 min, 37° C.
Description: In plasma A solution containing substrate (0.25 mM) and rat plasma (0.1 mL) was incubated for 30 min at 37° C. The reaction was quenched by addition of acetonitrile and centrifugation for 10 min. The solution was filtered and injected to HPLC.

[2] = test system: male C57BL/6 mice; experiment: Step-through passive avoidance (STPA) task, scopolamine induced memory impairment; settings: for effect on 48 h retention (scopolamine induced long term memory impairment): 4.5 umole/kg i.p. 20 minutes before training (NO-fluoxetine 2.05 mg/kg, fluoxetine 1.54 mg/kg), scopolamine 1 mg/kg
Description: Step-through passive avoidance (STPA) task This test was performed on male C57BL/6 mice (from Charles River's Laboratories), 8-10 weeks of age and weighing 22-27 g. The mice were kept under standardized laboratory conditions (temperature 21±1° C., humidity 50-60%) with free access to food and tap water in a room with a natural light-dark cycle.
Avoidance experiment was divided into 3 phases: habituation, training, and retention. The apparatus used consisted of a box divided into 2 compartments, an illuminated compartment adjacent to a dark compartment, the floor consisted of an electric grid controlled by a switch that can deliver an electric shock only to the dark compartment. A doorway was located at floor level in the center of the connecting wall; the door was closed once the mouse enters the dark compartment. The habituation phase was performed by individually putting the mice in the light compartment; the door was closed once the mouse enters the dark compartment (without an electric shock), left there for 15 seconds before being returned to its cage. The time (latency) to enter the dark box was recorded for each mouse; only mice scoring less than 30 seconds for three consecutive times were allowed to pass for the training phase. Training phase was performed 2 hours after the habituation phase by individually placing the mice again in the illuminated compartment but an electric shock (0.6 mA for 2 s) was delivered immediately after the mouse entered the dark compartment accompanied by the door closure. Trial was repeated for a maximum of 5 trials or until the mouse remained in the light compartment for 300 seconds in one of the trials. During the training phase, the number of trials and the time (latency) to enter the dark compartment was scored. Mice that entered the dark compartment in the fifth trial in less than 300 seconds were eliminated from the experiment. Forty-eight hours after the training trial, a retention test was conducted in which the same animals were put into the illuminated box and again the latency to enter the dark box was recorded. The retention trial ended when the mouse entered the dark box or 300 s had elapsed, whichever occurred first. Scopolamine (1 mg/kg) dissolved in physiological saline water was administered by i.p. injection 30 minutes before the training phase and drugs dissolved in 25% DMSO were administered by i.p. injection 20 minutes before the training.
The data were statistically evaluated by one way ANOVA, followed by Tukey post-hoc test.

[3] = NO-fluoxetine bioactivation in rat liver microsomes; format: in vitro ADME; settings: 0.25 mM substrate, NADPH, 30 min, 37° C.
Description: In rat liver microsomes A solution containing substrate (0.25 mM), rat liver microsomes (3 nmol of P450/0.5 mL), and NADPH (2 mM) in 50 mM phosphate buffer (pH 7.4, 0.5 mL total volume) was incubated for 30 min at 37° C. The reaction was quenched by addition of acetonitrile and centrifugation for 10 min. The solution was filtered and injected to HPLC.

[4] = NOx detection (NO analyzer, Griess assay); settings: incubated with GSH
Description: NOx detection A degassed solution containing NO-fluoxetine (0.5 mM), and cysteine (5 mM) or GSH (5 mM) in 50 mM phosphate buffer (pH 7.4, 1 mL total volume) was incubated for 30 min at 37° C. After 30 min, nitric oxide was detected using an NO analyzer, and nitrite and nitrate was detected using Griess assay.

[5] = test system: male Sprague Dawley rats; experiment: Modified forced swimming test; format: in vivo, rat; settings: 26.5 mg/kg i.p. 23.5, 5 and 1 hour before the test
Description: Modified forced swimming test This test was performed using male Sprague Dawley rats weighing 200-250 g. Rats were trained to swim in the water tank for 15 minutes 24 hour before the test. NO-Fluoxetine was administered by i.p. injections 23.5, 5, and 1 hour before the test at a dose of 26.5 mg/kg, which is equimolar to 20 mg/kg fluoxetine. NO-fluoxetine was freshly prepared in an emulsion formed of 5% Tween 80. The test was performed by putting the rats in a water tank consisting of an acrylic cylinder (22 cm diameter, 30 cm water depth, 25° C. water temperature) for 5 minutes. The 5 minute test was divided into 60 blocks of 5 seconds each. The major behavior in each 5 sec block was assigned for the whole block, including climbing, swimming, and immobile. The blocks representing different behaviors were counted.
In vivo NO-fluoxetine (26.5 mg/kg equimolar to 20 mg/kg fluoxetine) given by i.p. injections 23.5, 5, and 1 hour before the test was active in the modified forced swimming test, showing an increase in the swimming behaviour and a decrease in the immobility behaviour. Sub-acute injection of NO-fluoxetine provides sufficient time for the bioactivation of NO-fluoxetine and the subsequent release of fluoxetine.
Values presented as mean±SEM, n=6 per group. The data were statistically evaluated by ANOVA, followed by Turkey post-hoc test.

[6] = NO-fluoxetine bioactivation in phosphate buffer; format: physicochemical; settings: 50 mM phosphate buffer solutions pH 7.0, 7.4 and 8.0
Description: In Phosphate buffer saline A stock solution of NO-fluoxetine was prepared by dissolving 1 mg of the compound in 100 μL MeOH (21 mM). An aliquot (10 μL) of the stock solution was added to 990 μL of 50 mM phosphate buffer (pH 7.4) at 22° C., and the formation of fluoxetine was monitored by reverse phase HPLC using 4.6 mm×150 mm C18 column at a flow rate of 1.0 mL/min. The mobile phase contained 60% acetonitrile content, which was increased to 90% over 5 min. After the phase was held 90% for 5 min, the acetonitrile was reduced to 60% in 5 min. Formation of fluoxetine in buffers was positively identified by comparing retention time and the LC-MS (electrospary ionization) protonated [M+H]+ molecular ion (m/z 310) of the authentic sample. Fluoxetine formation was monitored every 15 min and percentage of fluoxetine formation was obtained with respect to time. Kinetic experiments were performed in 50 mM phosphate buffer solutions (pH 7.0, pH 7.4, and pH 8.0).
Formation of fluoxetine in buffer was positively identified by comparison to the retention time and the LC-MS (electrospary ionization) protonated [M+H]+ molecular ion (m/z 310) of an authentic fluoxetine sample.
Kinetic studies for the degradation of NO-fluoxetine were performed by monitoring the production of fluoxetine every 15 min in different pH buffer solutions (See FIG. 1).

Row | Structure (SMILES) | product of reaction with plasma [1] | effect on 48 h retention (scopolamine induced long term memory impairment) [2] | product of reaction with rat liver microsomes [3] | nitric oxide release [4] | activity in the modified forced swimming test [5] | immobility behaviour [5] | swimming behaviour [5] | conversion in buffer [6] | animals that failed to learn the STPA task during the training phase ([2]; 4.5 umole/kg i.p. 20 minutes before training)
1 | CN(CCC(Oc1ccc(C(F)(F)F)cc1)c1ccccc1)C(=O)SCCO[N+](=O)[O-] (stereo not shown) [NO-fluoxetine] | generated fluoxetine as the major product | reversed the scopolamine induced long term memory impairment | generated fluoxetine as the major product | released nitric oxide | active | decrease | increase | converted to fluoxetine | –
2 | CNCCC(Oc1ccc(C(F)(F)F)cc1)c1ccccc1 (stereo not shown) [fluoxetine] | – | did not have an effect | – | – | – | – | – | – | 5 of 12 and zero
